We go through 14 compounds from patent US20220389010A1, “Novel Triazolopyridine Derivatives and Pharmaceutical Composition Comprising Same” (Daewoong Pharmaceutical Co., Ltd., priority 2019, published 2022).

A value given as a limit tells only on which side of the number the result lay.

The assay deals with T1, Recombinant purified human JAK3 (Homo sapiens, UniProt P52333).
T1 construct: purchased Promega V9441
T1 sequence (P52333 1-1124): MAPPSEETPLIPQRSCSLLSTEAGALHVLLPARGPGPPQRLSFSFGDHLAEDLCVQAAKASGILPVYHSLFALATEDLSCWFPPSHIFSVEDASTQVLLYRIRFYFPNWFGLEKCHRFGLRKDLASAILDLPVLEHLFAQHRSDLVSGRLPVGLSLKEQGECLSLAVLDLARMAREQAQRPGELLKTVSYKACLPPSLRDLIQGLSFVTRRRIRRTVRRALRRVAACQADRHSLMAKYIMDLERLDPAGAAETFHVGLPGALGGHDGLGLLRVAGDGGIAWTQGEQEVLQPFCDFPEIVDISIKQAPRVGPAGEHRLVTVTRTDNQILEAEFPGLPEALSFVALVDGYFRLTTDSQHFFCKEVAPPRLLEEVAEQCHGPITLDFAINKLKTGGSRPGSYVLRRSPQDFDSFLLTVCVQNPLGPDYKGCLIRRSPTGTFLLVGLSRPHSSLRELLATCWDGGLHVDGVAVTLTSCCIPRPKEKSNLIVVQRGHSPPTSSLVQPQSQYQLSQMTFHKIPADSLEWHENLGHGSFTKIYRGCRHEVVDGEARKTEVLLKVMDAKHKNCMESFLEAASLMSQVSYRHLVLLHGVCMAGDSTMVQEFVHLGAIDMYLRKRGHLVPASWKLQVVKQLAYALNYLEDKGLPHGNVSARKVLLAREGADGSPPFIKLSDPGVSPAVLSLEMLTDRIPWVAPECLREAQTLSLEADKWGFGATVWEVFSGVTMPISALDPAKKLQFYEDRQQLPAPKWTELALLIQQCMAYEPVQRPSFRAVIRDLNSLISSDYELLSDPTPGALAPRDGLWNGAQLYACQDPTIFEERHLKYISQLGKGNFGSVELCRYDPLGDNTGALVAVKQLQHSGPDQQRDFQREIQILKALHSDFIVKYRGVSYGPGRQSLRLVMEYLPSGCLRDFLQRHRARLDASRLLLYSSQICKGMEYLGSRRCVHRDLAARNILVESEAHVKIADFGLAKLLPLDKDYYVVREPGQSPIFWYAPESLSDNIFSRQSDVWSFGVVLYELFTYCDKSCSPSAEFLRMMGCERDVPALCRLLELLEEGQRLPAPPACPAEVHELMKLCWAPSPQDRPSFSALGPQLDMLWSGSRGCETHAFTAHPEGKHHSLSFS
The experiment in a line: JAK3 inhibitory activity test (ADP-Glo kinase assay). In kind it is biochemical. The following applies: ATP 5 uM, 1 hour incubation at 30° C. The procedure:
The inhibitory activities against JAK3 were measured for the compounds prepared in the above Examples through in vitro analysis on the ADP Glow (Glo) platform.
Specifically, the inhibitory activities against JAK3 were measured using a JAK3 kinase assay kit (Promega, V9441), which was purchased from Promega. Recombinant purified human JAK3 was diluted with 1× kinase reaction buffer (JAK3: 40 mM Tris-CI, pH 7.5, 20 mM MgCl2, 0.1 mg/mL BSA and 50 uM OTT and added to a 96 well plate (JAK3: final concentration of 4 ng per reaction). The compounds prepared in the previous Examples were treated so as to be finally a 1% DMSO aqueous solution, and a substrate cocktail containing ATP (JAK3: final concentration of 5 uM) and 0.2 ug/ul of Poly(Glu4, Tyri) peptide (JAK3 final concentration) in the total 25 uL reactants was added to a 96-well plate to initiate enzymatic reaction. After incubation (30° C.) for 1 hour, equivalent volume (25 uL per reaction) of ADP Glo was added and incubated (30° C.) for 40 minutes at room temperature. Then, a kinase detection reagent (50 uL per reaction) was added and incubated (30° C.) for 30 minutes at room temperature. The kinase activity was measured by chemiluminescence according to the instructions of ADP Glo kinase assay kit, and the inhibitory activity of the compounds according to the present invention was calculated. For the analysis of the results of each compound, Microsoft Excel was used, and IC50 values were calculated by SigmaPlot software.
For orientation: In ADP-Glo the light output rises with the ADP produced.

By IC50 is commonly meant the concentration needed to halve the response being measured. As for `C=CC(=O)Nc1ccc(F)c(Oc2cccc3nc(Nc4cnn(C)c4)nn23)c1` [Example 30, N-(4-fluoro-3-(2-(1-methyl-1H-pyrazol-4-ylamino)-[1,2,4]triazolo[1,5-a]pyridin-5-yloxy)phenyl)acrylamide], the IC50 was determined as 13.1 nM.

As for `C=CC(=O)Nc1cccc(Oc2cccc3nc(Nc4cnn(Cc5cccc(OC)c5)c4)nn23)c1` [Example 14, N-(3-(2-(1-(3-methoxybenzyl)-1H-pyrazol-4-ylamino)-[1,2,4]triazolo[1,5-a]pyridin-5-yloxy)phenyl)acrylamide], the IC50 was determined as 11.1 nM.

Consider `C=CC(=O)Nc1cccc(Oc2cccc3nc(Nc4ccc(Oc5ccccc5)cc4)nn23)c1` [Example 13, N-(3-(2-(4-phenoxyphenylamino)-[1,2,4]triazolo[1,5-a]pyridin-5-yloxy)phenyl)acrylamide], for which the IC50 is 9.8 nM.

Regarding `C=CC(=O)Nc1cccc(Oc2cccc3nc(Nc4cnc5ncn(C)c5c4)nn23)c1` [Example 26, N-(3-(2-(1-methyl-1H-imidazo[4,5-b]pyridin-6-ylamino)-[1,2,4]triazolo[1,5-a]pyridin-5-yloxy)phenyl)acrylamide], the IC50 was more than 80 nM.

For `C=CC(=O)Nc1cccc(Oc2cccc3nc(Nc4cccc5ccccc45)nn23)c1` [Example 23, N-(3-(2-(naphthalen-1-ylamino)-[1,2,4]triazolo[1,5-a]pyridin-5-yloxy)phenyl)acrylamide], the 50% inhibitory concentration (IC50) was more than 400 nM.

`C=CC(=O)Nc1cccc(Oc2cccc3nc(Nc4ccc(OCCN(CC)CC)cc4)nn23)c1` [Example 15, N-(3-(2-(4-(2-(diethylamino)ethoxy)phenylamino)-[1,2,4]triazolo[1,5-a]pyridin-5-yloxy)phenyl)acrylamide]: the IC50 turned out to be 6.2 nM.

Take `C=CC(=O)Nc1ccc(F)c(Oc2cccc3nc(Nc4ccc(N5CCN(C)CC5)cc4)nn23)c1` [Example 29, N-(4-fluoro-3-(2-(4-(4-methylpiperazin-1-yl)phenylamino)-[1,2,4]triazolo[1,5-a]pyridin-5-yloxy)phenyl)acrylamide]: the IC50 was determined as 0.7 nM.

For `C=CC(=O)Nc1cccc(Oc2cccc3nc(Nc4cnc5onc(C)c5c4)nn23)c1` [Example 25, N-(3-(2-(3-methylisoxazolo[5,4-b]pyridin-5-ylamino)-[1,2,4]triazolo[1,5-a]pyridin-5-yloxy)phenyl)acrylamide], the IC50 amounted to 105 nM.

For `C=CC(=O)Nc1cccc(Oc2cccc3nc(Nc4cnn(C(F)F)c4)nn23)c1` [Example 8, N-(3-(2-(1-(difluoromethyl)-1H-pyrazol-4-ylamino)-[1,2,4]triazolo[1,5-a]pyridin-5-yloxy)phenyl)acrylamide], the IC50 worked out at 1.3 nM.

For `C=CC(=O)Nc1cccc(Oc2cccc3nc(Nc4ccc(N5CCN(C)CC5)cc4)nn23)c1` [Example 1, N-(3-(2-(4-(4-methylpiperazin-1-yl)phenylamino)-[1,2,4]triazolo[1,5-a]pyridin-5-yloxy)phenyl)acrylamide], the IC50 stood at 0.47 nM.

Take `C=CC(=O)Nc1cccc(Oc2cccc3nc(Nc4ccc(S(=O)(=O)N5CCCCC5)cc4)nn23)c1` [Example 18, N-(3-(2-(4-(piperidin-1-ylsulfonyl)phenylamino)-[1,2,4]triazolo[1,5-a]pyridin-5-yloxy)phenyl)acrylamide]: the IC50 was found to be 3 nM.

Turning to `C=CC(=O)Nc1ccc(F)c(Oc2cccc3nc(Nc4cnn(C(F)F)c4)nn23)c1` [Example 31, N-(3-(2-(1-(difluoromethyl)-1H-pyrazol-4-ylamino)-[1,2,4]triazolo[1,5-a]pyridin-5-yloxy)-4-fluorophenyl)acrylamide], the IC50 amounted to 18.2 nM.

Regarding `C=CC(=O)Nc1cccc(Oc2cccc3nc(Nc4ccc(N5CCOCC5)cc4)nn23)c1` [Example 4, N-(3-(2-(4-morpholinophenylamino)-[1,2,4]triazolo[1,5-a]pyridin-5-yloxy)phenyl)acrylamide], the IC50 was found to be 0.6 nM.

Take `C=CC(=O)Nc1cccc(Oc2cccc3nc(Nc4nc5ccc(Cl)cc5s4)nn23)c1` [Example 22, N-(3-(2-(6-chlorobenzo[d]thiazol-2-ylamino)-[1,2,4]triazolo[1,5-a]pyridin-5-yloxy)phenyl)acrylamide]: the IC50 was more than 400 nM.
